Paper PMC5675618, “Identification and validation of FGFR2 peptide for detection of early Barrett's neoplasia” (Oncotarget, 2017)

How the values were obtained:
[1] = test system: sections of human gastric cancer; assay: Confocal microscopy of staining of human gastric cancer ex vivo
Description: We observed good co-localization of peptide and antibody binding on merged images, Supplementary Figure 6C. Representative histology (H&E) for gastric cancer is shown, Supplementary Figure 6D. […] Representative histology (H&E) for normal stomach is shown, Supplementary Figure 6H.

[2] = test system: sections of human esophagus ex vivo; assay: Confocal microscopy of staining of human esophageal specimens ex vivo (SQ, BE, HGD, EAC)
Protocol: Formalin-fixed sections of human esophageal specimens were deparaffinized, and antigen retrieval was performed using standard methods. Briefly, the sections were incubated in xylene for 3 min 3X, washed with 100% ethanol for 2 min 2X, and washed with 95% ethanol for 2 min 2X. Rehydration was performed by washing in dH2O for 5 min 2X. Antigen unmasking was performed by boiling the slides in 10 mM sodium citrate buffer with 0.05% Tween at pH 6.0, and then maintaining at sub-boiling temperature for 15 min. The slides were cooled for 30 min, and the sections were washed in dH2O for 3 min 3X and in PBS for 5 min. Blocking was performed with DAKO protein blocking agent (X0909, DAKO) for 1 hour at RT. The peptides were incubated at a concentration of 1 μM for 10 min at RT. The sections were washed in PBS for 3 min 3X, and incubated with 1:1000 dilution of monoclonal anti-FGFR2 (Abcam, ab58201) overnight at 4°C.
The sections were then washed in PBS for 5 min 3X. A 1:500 dilution of AF488-labeled secondary antibody (goat anti-mouse) was added to each section and incubated for 30 min at RT. The secondary antibody solution was removed by washing with PBS for 5 min 3X. The sections were then mounted with ProLong Gold reagent containing DAPI (Invitrogen). The mean fluorescence intensities from 3 boxes (dimensions of 30×30 μm^2) located completely within the surface epithelium of each specimen were measured. […] Serial sections were processed for routine histology (H&E), and were reviewed by an expert gastrointestinal pathologist (HDA).

For SRRPASFRTARE [SRR^*-Cy5.5], the “mean fluorescence intensity, gastric cancer versus normal, SRR*-Cy5.5” value ([1]; P=7×10-17, paired two-sided t-test, 3 boxes of 30×30 μm2) was “significantly greater mean fluorescence intensity”, the “fluorescence intensity / binding, gastric cancer” value ([1]; gastric cancer sections ex vivo, n = 33 patients) was “strong fluorescence intensity” and the “staining, normal human stomach” value ([1]; normal stomach, comparison) was “minimal staining”. The “mean T/B ratio, HGD and EAC versus BE and SQ” value ([2]; 3 boxes of 30×30 μm^2, n = 28, 33, 22, 17 specimens of SQ, BE, HGD, EAC) was “significantly higher”, the “mean fluorescence intensity, HGD and EAC versus BE” value ([2]; ANOVA, 4 means, log-transformed data, 3 boxes of 30×30 μm^2) was “significantly greater mean fluorescence intensity” and the “fluorescence intensity / staining, Barrett's esophagus (BE)” value ([2]; BE, n = 33 specimens, peptide 1 μM, 10 min at RT, antibody 1:1000 overnight at 4°C) was “minimal fluorescence intensity”. The “fluorescence intensity / staining, esophageal adenocarcinoma (EAC)” value ([2]; EAC, n = 17 specimens, peptide 1 μM, 10 min at RT, antibody 1:1000 overnight at 4°C) was “strong signal”, the “fluorescence intensity / staining, high-grade dysplasia (HGD)” value ([2]; HGD, n = 22 specimens, peptide 1 μM, 10 min at RT, antibody 1:1000 overnight at 4°C) was “strong signal” and the “fluorescence intensity / staining, squamous (SQ)” value ([2]; SQ, n = 28 specimens, peptide 1 μM, 10 min at RT, antibody 1:1000 overnight at 4°C) was “minimal fluorescence intensity”.
